Laboratory results from patent publication US9005646B2, “Compositions for repair of defects in tissues, and methods of making the same” (LifeNet Health, priority 2005, dated 2015).

How the values were obtained:
[1] = tested on: athymic nude mice; assay: Osteoinductivity bioassay of irradiated compositions with radioprotectant, implanted into athymic nude mice; assay type: in vivo; settings: for Passed Osteoinductivity: radioprotectant added to homogenized fascia slurry of tissue repair composition, post-gamma irradiation, implanted into athymic nude mice
Source text: (§1) Multiple radioprotectants (Table 1) were investigated over a range of concentrations and the handling characteristics of the resultant products were semi-quantitatively analyzed post-gamma irradiation. Those products that passed the semi-quantitative analysis went on to be implanted into athymic nude mice as a bioassay to assess osteoinductivity.
The method to add the radioprotectant was consistent for each radioprotectant investigated. The slurry was made as described in example 1 (heating and blending cycles) and once completed, the radioprotectant of choice was added to the slurry in the form it was supplied from the manufacturer (powder or liquid).

[2] = Semi-quantitative analysis of handling characteristics post-gamma irradiation; assay type: physicochemical; settings: putty/paste tissue repair composition; sterilizing dose of gamma irradiation; 100 mM where radioprotectant present
Source text: To meet the current U.S. FDA regulatory standards and market expectations, a product must be sterile to a sterility assurance level of 1×10^−6 (SAL). […] The composition crumbled apart releasing the bone matrix.
In order to manufacture a tissue repair composition, in the form of a putty/paste, having desirable handling characteristics post-irradiation at dose designed to achieve a SAL of 1×10^−6, it was thought that the addition of one or more radioprotectants to the composition would produce a product with the desirable handling properties because the radioprotectant will act as a free radical scavenger during the irradiation sterilization process and would protect the handling characteristics of the putty/paste composition. An addition facet was that the radioprotectant must not negatively interfere with the biological activity over time (shelf life).
as §1

Row | Compound | impact on osteoinductivity ([1]; 100 mM radioprotectant in composition, after sterilizing dose of gamma irradiation) | Passed Osteoinductivity [1] | handling characteristics after gamma irradiation [2]
1 | N=C(N)NN [Aminoguanidine] | no negative impact | Yes | no negative impact
2 | L-Ascorbic Acid 2-phosphate sesquimagnesium salt |  | Yes | 
3 | L-Ascorbic Acid, salt |  | Yes | 
